Data published in US20250313563A1, “GLYCOGEN SYNTHASE KINASE 3 INHIBITORS AND USES THEREOF” (The Broad Institute, Inc., priority 2022, published 2025).
pIC50: −log10 of the molar value. Where two headings read alike, the source gives them in different places.

Key:
[1] = target: GSK3α (GST-full length GSK3α) (Homo sapiens (Human), UniProt P49840); assay: GSK3α TR-FRET kinase assay; assay type: biochemical
How it was run: (§1)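 Readout: anti-pSer641 Tb antibody/streptavidin-d2 signal after 60 min, expressed as 665/615 ratio and fitted versus log concentration for IC50. Enzyme: 1 nM GST-GSK3 (α or β), compound-preincubated 30 min. Conditions: pH 7.5 Tris buffer with MgCl2, DTT, BSA; ATP at 4 or 2 μM, or 1 mM; 100 min.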

[2] = target: GSK3b (GST-full length GSK3b) (Homo sapiens (Human), UniProt P49841); assay: GSK3b TR-FRET kinase assay; assay type: biochemical
How it was run: as §1

[3] = 1 nM GSK3α, 4 μM ATP, 30 minute preincubation, geometric mean, read-out: GSK3-A TR-FRET BIOCHEMICAL (TR-FRET), GMean, IC50
[4] = 1 nM GSK3b, 2 μM ATP, 30 minute preincubation, geometric mean, read-out: GSK3-B TR-FRET BIOCHEMICAL (TR-FRET), GMean, IC50
[5] = 1 nM GSK3α, 4 μM ATP, 30 minute preincubation, Table 16, read-out: GSK3-A TR-FRET BIOCHEMICAL (TR-FRET), IC50
[6] = read-out: GSK3-A (TR-FRET 1 mM ATP), GMean, IC50, 1 mM ATP, geometric mean
[7] = 1 nM GSK3b, 2 μM ATP, 30 minute preincubation, Table 16, read-out: GSK3-B TR-FRET BIOCHEMICAL (TR-FRET), IC50
[8] = read-out: GSK3-B (TR-FRET 1 mM ATP), GMean, IC50, 1 mM ATP, geometric mean
[9] = 1 nM GSK3α, 4 μM ATP, 30 minute preincubation, Table 16, read-out: GSK3-A TR-FRET BIOCHEMICAL (TR-FRET)
[10] = 1 nM GSK3b, 2 μM ATP, 30 minute preincubation, Table 16, read-out: GSK3-B TR-FRET BIOCHEMICAL (TR-FRET)
[11] = 1 nM GSK3α, 4 μM ATP, 30 minute preincubation, read-out: GSK3-A TR-FRET BIOCHEMICAL (TR-FRET), IC50
[12] = 1 nM GSK3b, 2 μM ATP, 30 minute preincubation, read-out: GSK3-B TR-FRET BIOCHEMICAL (TR-FRET), IC50

Chain of GSK3α (GST-full length GSK3α) (P49840 whole entry): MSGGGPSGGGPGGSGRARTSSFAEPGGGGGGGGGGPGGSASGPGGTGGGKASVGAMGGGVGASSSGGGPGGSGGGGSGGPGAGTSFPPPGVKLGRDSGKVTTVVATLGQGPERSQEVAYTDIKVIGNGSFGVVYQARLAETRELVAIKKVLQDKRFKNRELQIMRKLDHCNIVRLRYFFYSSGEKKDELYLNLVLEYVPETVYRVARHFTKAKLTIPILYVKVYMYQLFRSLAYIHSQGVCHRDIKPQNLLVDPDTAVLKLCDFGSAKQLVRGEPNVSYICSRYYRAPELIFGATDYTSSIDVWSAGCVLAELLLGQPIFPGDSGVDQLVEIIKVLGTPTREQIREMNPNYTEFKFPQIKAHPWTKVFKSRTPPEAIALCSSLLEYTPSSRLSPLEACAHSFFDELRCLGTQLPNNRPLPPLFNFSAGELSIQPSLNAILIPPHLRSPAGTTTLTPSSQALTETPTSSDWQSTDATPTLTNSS
Chain of GSK3b (GST-full length GSK3b) (P49841 whole entry): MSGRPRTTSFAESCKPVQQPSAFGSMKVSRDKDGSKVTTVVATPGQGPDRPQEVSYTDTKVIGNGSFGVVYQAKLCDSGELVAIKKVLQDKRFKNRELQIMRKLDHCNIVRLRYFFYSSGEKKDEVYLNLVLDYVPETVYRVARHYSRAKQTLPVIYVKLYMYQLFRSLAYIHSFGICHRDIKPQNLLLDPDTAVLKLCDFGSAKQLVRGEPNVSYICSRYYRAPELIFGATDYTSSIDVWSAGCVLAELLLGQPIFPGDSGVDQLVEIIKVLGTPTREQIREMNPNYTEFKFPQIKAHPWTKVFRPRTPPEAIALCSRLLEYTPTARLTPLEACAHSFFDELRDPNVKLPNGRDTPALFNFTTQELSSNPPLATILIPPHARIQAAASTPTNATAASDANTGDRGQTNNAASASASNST

Row | Compound | pIC50 [1, 5] | pIC50 [2, 7] | pIC50 [1, 9] | pIC50 [2, 10] | also measured
1 | CCC1(c2cccc(-c3ccnn3C)c2)C2=C(CC(C)(COC)NC2=O)Nc2n[nH]cc21 (stereo not drawn) [Compound 947905] |  |  |  |  | pIC50 [1, 3]: ≥ 7.00; pIC50 [2, 4]: 6.00 to 7.00
2 | CCC1(c2cc(-c3ccncc3)ccc2C)C2=C(CC(C)(C)CC2=O)Nc2n[nH]cc21 (stereo not drawn) [Compound 893323] | ≥ 7.00 | 6.00 to 7.00 |  |  | pIC50 [1, 6]: 6.00 to 7.00; pIC50 [2, 8]: < 5.30
3 | Cn1cncc1-c1cccc([C@@]2(C)C3=C(CC(C)(C)CC3=O)Nc3n[nH]c(CC(C)(C)C)c32)c1 [Compound 126015] |  |  |  |  | pIC50 [1, 6]: < 5.30; pIC50 [2, 8]: < 5.30
4 | CC[C@]1(c2cccc(-c3ccnc(CCO)c3)c2)C2=C(CC(C)(C)CC2=O)Nc2n[nH]cc21 [Compound 947810] |  |  | ≥ 7.00 | 6.00 to 7.00 | 
5 | CCC1(c2cccc(-c3c(C)nn(C)c3C)c2)C2=C(CC(C)(C)NC2=O)Nc2n[nH]c(C)c21 (stereo not drawn) [Compound 947575] |  |  |  |  | pIC50 [1, 3]: ≥ 7.00; pIC50 [2, 4]: ≥ 7.00
6 | CCC1(c2cccc(S(=O)(=O)C3COC3)c2)C2=C(CC(C)(C)CC2=O)Nc2n[nH]cc21 (stereo not drawn) [Compound 945998] |  |  | ≥ 7.00 | ≥ 7.00 | 
7 | CCC1(c2cccc(-c3ccnc(OC)n3)c2)C2=C(CC(C)(C)CC2=O)Nc2n[nH]cc21 (stereo not drawn) [Compound 948092] |  |  | ≥ 7.00 | ≥ 7.00 | 
8 | CC[C@]1(c2cccc(-c3cc(C)ncc3C)c2)C2=C(CC(C)(C)CC2=O)Nc2n[nH]c(C)c21 [Compound 913050] | ≥ 7.00 | ≥ 7.00 |  |  | pIC50 [1, 6]: ≥ 7.00; pIC50 [2, 8]: 6.00 to 7.00
9 | CC1(C)CC(=O)C2=C(C1)Nc1n[nH]cc1C21CCN(S(C)(=O)=O)CC1 [Compound 880776] |  |  | ≥ 7.00 | ≥ 7.00 | 
10 | CC[C@@]1(c2cccc(-c3cnn(Cc4ccc(C(F)(F)F)cc4)c3)c2)C2=C(CC(C)(C)NC2=O)Nc2n[nH]cc21 [Compound 949511] | < 5.30 | < 5.30 |  |  | 
11 | CCC1(c2ccccc2)C2=C(CC(C)(C)CC2=O)Nc2n[nH]c(Br)c21 (stereo not drawn) [Compound 789459] |  |  |  |  | pIC50 [1, 3]: ≥ 7.00; pIC50 [2, 4]: ≥ 7.00
12 | CCC1(c2cccc(C(F)(F)F)c2)C2=C(CC(C)CC2=O)Nc2n[nH]cc21 (stereo not drawn) [Compound 810452] |  |  |  |  | pIC50 [1, 3]: 6.00 to 7.00; pIC50 [2, 4]: 5.30 to 6.00
13 | CCC1(c2cccc(Oc3cncnc3)c2)C2=C(CC(C)(C)CC2=O)Nc2n[nH]cc21 (stereo not drawn) [Compound 945939] |  |  | 6.00 to 7.00 | < 5.30 | 
14 | CCC1(CC)C2=C(CC(C)(C)CC2=O)Nc2n[nH]c(C3CC3)c21 [Compound 877294] | < 5.30 | < 5.30 |  |  | 
15 | CC1(C)CC(=O)C2=C(C1)Nc1n[nH]cc1C21CCN(S(=O)(=O)c2ccn(-c3ccccc3)n2)CC1 [Compound 947461] |  |  |  |  | pIC50 [1, 11]: ≥ 7.00; pIC50 [2, 12]: ≥ 7.00
16 | CCC1(c2cccc(-c3ccnc(C)c3C)c2)C2=C(CC(C)(C)CC2=O)Nc2n[nH]cc21 (stereo not drawn) [Compound 943516] |  |  | ≥ 7.00 | ≥ 7.00 | pIC50 [1, 6]: ≥ 7.00; pIC50 [2, 8]: 5.30 to 6.00
17 | CC[C@H]1C[C@]2(CCO1)C1=C(CC(C)(C)CC1=O)Nc1n[nH]cc12 [Compound 924311] | 6.00 to 7.00 | 5.30 to 6.00 |  |  | 
18 | CC1(C)CC(=O)C2=C(C1)Nc1n[nH]cc1[C@@]21CCc2c(F)cccc21 [Compound 806632] |  |  |  |  | pIC50 [1, 3]: < 5.78; pIC50 [2, 4]: < 5.30
19 | COc1ccc(S(=O)(=O)N2CCC3(CC2)C2=C(CC(C)(C)CC2=O)Nc2n[nH]cc23)cc1Cl [Compound 947612] |  |  | ≥ 7.00 | ≥ 7.00 | 
20 | CCn1nc(C)c(S(=O)(=O)N2CCC3(CC2)C2=C(CC(C)(C)CC2=O)Nc2n[nH]cc23)c1C [Compound 945679] |  |  | 6.00 to 7.00 | 5.30 to 6.00 | 
21 | CC[C@@]1(c2cccc(-c3ccncc3F)c2)C2=C(CC(C)(C)NC2=O)Nc2[nH]nc(C(F)(F)F)c21 [Compound 948777] |  |  |  |  | pIC50 [1, 3]: ≥ 7.00; pIC50 [2, 4]: ≥ 7.00

Row | Compound | pIC50 [1, 5] | pIC50 [2, 7] | pIC50 [1, 9] | pIC50 [2, 10] | also measured
22 | CC[C@@]1(c2cccc(-c3cnn(C(F)F)c3)c2)C2=C(CC(C)(C)NC2=O)Nc2n[nH]cc21 [Compound 948816] |  |  |  |  | pIC50 [1, 3]: < 5.30; pIC50 [2, 4]: < 5.30
23 | CCC1(c2cccc(-c3ccnc(C)c3)c2)C2=C(CC(C)(C)NC2=O)Nc2n[nH]c(C)c21 (stereo not drawn) [Compound 947798] |  |  |  |  | pIC50 [1, 3]: ≥ 7.00; pIC50 [2, 4]: 6.00 to 7.00
24 | CCCS(=O)(=O)c1cccc(C2(CC)C3=C(CC(C)(C)CC3=O)Nc3n[nH]cc32)c1 (stereo not drawn) [Compound 917131] | ≥ 7.00 | ≥ 7.00 |  |  | 
25 | CCC1(c2cccc(-c3cncn3C(C)C)c2)C2=C(CC(C)(C)CC2=O)Nc2n[nH]cc21 (stereo not drawn) [Compound 944026] |  |  | ≥ 7.00 | ≥ 7.00 | 
26 | C[C@H]1C[C@@]2(CCN1S(=O)(=O)c1ccn(C)n1)C1=C(CC(C)(C)CC1=O)Nc1n[nH]cc12 [Compound 926815] |  |  | ≥ 7.00 | ≥ 7.00 | 
27 | CC(C)[C@@H]1C[C@@]2(CCO1)C1=C(CC(C)(C)CC1=O)Nc1n[nH]cc12 [Compound 884013] | 5.30 to 6.00 | < 5.30 |  |  | 
28 | CC[C@]1(c2cccc(-c3cn(C)nc3C)c2)C2=C(CC(C)(C)NC2=O)Nc2n[nH]cc21 [Compound 945470] |  |  |  |  | pIC50 [1, 11]: ≥ 7.00; pIC50 [1, 6]: 6.00 to 7.00; pIC50 [2, 12]: ≥ 7.00; pIC50 [2, 8]: 5.30 to 6.00
29 | Cn1cc(CN2CC3(C2)C2=C(CC(C)(C)CC2=O)Nc2n[nH]cc23)cn1 [Compound 929439] | < 5.30 | < 5.30 |  |  | 
30 | CCC1(c2cccc(N3CCCc4ncccc43)c2)C2=C(CC(C)(C)CC2=O)Nc2n[nH]cc21 (stereo not drawn) [Compound 889639] | ≥ 7.00 | ≥ 7.00 |  |  | pIC50 [1, 6]: ≥ 7.00; pIC50 [2, 8]: 6.00 to 7.00
31 | CCC1(c2cccc(-c3ccnc(OC(C)C)c3)c2)C2=C(CC(C)(C)CC2=O)Nc2n[nH]cc21 (stereo not drawn) [Compound 932626] | 6.00 to 7.00 | 6.00 to 7.00 |  |  | 
32 | CC[C@@]1(c2cccc(-c3cncn3C)c2)C2=C(CC(C)(C)CC2=O)Nc2n[nH]c(C)c21 [Compound 913032] | ≥ 7.00 | ≥ 7.00 |  |  | pIC50 [1, 6]: ≥ 7.00; pIC50 [2, 8]: ≥ 7.00
33 | CCC1(c2cccc(CN(C)C(=O)COC)c2)C2=C(CC(C)(C)CC2=O)Nc2n[nH]cc21 (stereo not drawn) [Compound 865196] |  |  |  |  | pIC50 [1, 3]: 6.00 to 7.00; pIC50 [2, 4]: < 5.30
34 | CC[C@]1(c2cccc(-c3ccncc3F)c2)C2=C(CC(C)(C)CC2=O)Nc2n[nH]c(C(F)(F)F)c21 [Compound 947326] |  |  | ≥ 7.00 | ≥ 7.00 | pIC50 [1, 6]: ≥ 7.00; pIC50 [2, 8]: ≥ 7.00
35 | CCC1(c2cccc(-c3ccnc(C)c3F)c2)C2=C(CC(C)(C)NC2=O)Nc2n[nH]c(C)c21 (stereo not drawn) [Compound 947563] |  |  |  |  | pIC50 [1, 3]: ≥ 7.00; pIC50 [2, 4]: 6.00 to 7.00
36 | CCC1(c2cccc(-c3ccnc(C)c3)c2)C2=C(CC(C)(C)C2=O)Nc2n[nH]cc21 (stereo not drawn) [Compound 949840] | 6.00 to 7.00 | 5.30 to 6.00 |  |  | 
37 | CC1(C)CC(=O)C2=C(C1)Nc1n[nH]cc1C21COC2(CN(C(=O)c3ccccc3F)C2)C1 (stereo not drawn) [Compound 947289] |  |  |  |  | pIC50 [1, 11]: ≥ 7.00; pIC50 [2, 12]: ≥ 7.00
38 | CC[C@@]1(c2cccc(-c3ccnc4cc(Cl)ccc34)c2)C2=C(CC(C)(C)NC2=O)Nc2n[nH]cc21 [Compound 948362] |  |  |  |  | pIC50 [1, 3]: < 5.30; pIC50 [2, 4]: < 5.30
39 | CCC1(c2cccc(-c3cnnn3C)c2)C2=C(CC(C)(C)CC2=O)Nc2n[nH]cc21 (stereo not drawn) [Compound 947398] |  |  | ≥ 7.00 | ≥ 7.00 | 
40 | Cc1ccc(S(=O)(=O)N2CCC3(CC2)C2=C(CC(C)(C)CC2=O)Nc2n[nH]cc23)cc1 [Compound 947459] |  |  | ≥ 7.00 | 6.00 to 7.00 | 
41 | CCC1(c2cccc(C(C)C)c2)C2=C(CC(C)(C)NC2=O)Nc2n[nH]c(C(F)(F)F)c21 (stereo not drawn) [Compound 949747] | ≥ 7.00 | ≥ 7.00 |  |  | 
